Measured values: the supplement of paper PMC9663587

Key:
[1] = compound: CC(=O)c1c(C)c2cnc(Nc3ccc(N4CCNCC4)cn3)nc2n(C2CCCC2)c1=O; assay: increase in dead-cell fraction, 72 h; higher = more death;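 note: breast cancer cell lines in 384-well plates, stained with Hoechst plus LIVE/DEAD far red dye and imaged, cells above an LDR intensity threshold counted dead, Hoechst-negative corpses included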
[2] = compound: CCc1cnn2c(NCc3ccc[n+]([O-])c3)cc(N3CCCC[C@H]3CCO)nc12; assay: as above
THZ1 = compound: CN(C)C/C=C/C(=O)Nc1ccc(C(=O)Nc2cccc(Nc3ncc(Cl)c(-c4c[nH]c5ccccc45)n3)c2)cc1 [THZ1]; assay: as above
LEE011/Ribociclib = compound: CN(C)C(=O)c1cc2cnc(Nc3ccc(N4CCNCC4)cn3)nc2n1C1CCCC1 [LEE011/Ribociclib]; assay: as above
[3] = compound: CCN1CCN(Cc2ccc(Nc3ncc(F)c(-c4cc(F)c5nc(C)n(C(C)C)c5c4)n3)nc2)CC1; assay: as above
Neratinib/HKI272 = compound: CCOc1cc2ncc(C#N)c(Nc3ccc(OCc4ccccn4)c(Cl)c3)c2cc1NC(=O)/C=C/CN(C)C [Neratinib/HKI272]; assay: as above
BSJ-03-123 = compound: CC(=O)c1c(C)c2cnc(Nc3ccc(N4CCN(CCOCCOCCOCCNC(=O)COc5cccc6c5C(=O)N(C5CCC(=O)NC5=O)C6=O)CC4)cn3)nc2n(C2CCCC2)c1=O [BSJ-03-123]; assay: as above
Flavopiridol = compound: CN1CC[C@H](c2c(O)cc(O)c3c(=O)cc(-c4ccccc4Cl)oc23)[C@H](O)C1 [Flavopiridol]; assay: as above
Ipatasertib/GDC0068 = compound: CC(C)NC[C@@H](C(=O)N1CCN(c2ncnc3c2[C@H](C)C[C@H]3O)CC1)c1ccc(Cl)cc1 [Ipatasertib/GDC0068]
[4] = compound: COc1ccc2c(c1)[C@]1(C[C@H]1c1ccc3c(/C=C/c4ccc(CN5C[C@@H](C)O[C@@H](C)C5)cc4)n[nH]c3c1)C(=O)N2
AZD7762 = compound: NC(=O)Nc1cc(-c2cccc(F)c2)sc1C(=O)N[C@H]1CCCNC1 [AZD7762]
Tivantinib/ARQ197 = compound: O=C1NC(=O)[C@@H](c2cn3c4c(cccc24)CCC3)[C@@H]1c1c[nH]c2ccccc12 [Tivantinib/ARQ197]
AZD6738 = compound: C[C@@H]1COCCN1c1cc(C2([S@](C)(=N)=O)CC2)nc(-c2cc[nH]c3nccc2-3)n1 [AZD6738]
BSJ-01-175 = compound: CN(C)C/C=C/C(=O)Nc1ccc(O[C@@H]2CCC[C@@H](Nc3ncc(Cl)c(-c4c[nH]c5ccccc45)n3)C2)cc1 [BSJ-01-175]
[5] = compound: CCN1CCN(Cc2ccc(Nc3ncc(F)c(-c4cc(F)c5nc(C)n(C(C)C)c5c4)n3)nc2)CC1
[6] = compound: CCC1=CN=CN=C1N2CCN(CC2)CC3=NC4=C(N3)C=C(C=C4)C(F)(F)F
AZD2014 = compound: CNC(=O)c1cccc(-c2ccc3c(N4CCOC[C@@H]4C)nc(N4CCOC[C@@H]4C)nc3n2)c1 [AZD2014]
Vorinostat = compound: O=C(CCCCCCC(=O)Nc1ccccc1)NO [Vorinostat]
[7] = compound: CC(=O)Nc1cccc(-n2c(=O)n(C3CC3)c(=O)c3c(Nc4ccc(I)cc4F)n(C)c(=O)c(C)c32)c1
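Throughout, for GR50, 72 h: breast cancer and non-malignant breast epithelial cell lines, Deep Dye Drop or Dye Drop imaging, nine half-log doses, GR normalized to time-zero plates and DMSO-only controls.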

## CAL120
[1]; 0.0003162 µM
  increase in dead-cell fraction: -0.0011
[1]; 0.001 µM
  increase in dead-cell fraction: -0.0036
[1]; 0.003162 µM
  increase in dead-cell fraction: 0.0022
[1]; 0.01 µM
  increase in dead-cell fraction: -0.0072
[1]; 0.03162 µM
  increase in dead-cell fraction: 0.0004
[1]; 0.1 µM
  increase in dead-cell fraction: 0.0047
[1]; 0.3162 µM
  increase in dead-cell fraction: 0.0049
[1]; 1 µM
  increase in dead-cell fraction: 0.0051
[1]; 3.162 µM
  increase in dead-cell fraction: 0.0096
[2]; 0.0001 µM
  increase in dead-cell fraction: -0.0093
[2]; 0.0003162 µM
  increase in dead-cell fraction: -0.0043
[2]; 0.001 µM
  increase in dead-cell fraction: -0.0016
[2]; 0.003162 µM
  increase in dead-cell fraction: 0.0101
[2]; 0.01 µM
  increase in dead-cell fraction: 0.132
[2]; 0.03162 µM
  increase in dead-cell fraction: 0.241
[2]; 0.1 µM
  increase in dead-cell fraction: 0.233
[2]; 0.3162 µM
  increase in dead-cell fraction: 0.25
[2]; 1 µM
  increase in dead-cell fraction: 0.208
THZ1; 0.0001 µM
  increase in dead-cell fraction: -0.0036
THZ1; 0.0003162 µM
  increase in dead-cell fraction: 0.0008
THZ1; 0.001 µM
  increase in dead-cell fraction: -0.0008
THZ1; 0.003162 µM
  increase in dead-cell fraction: 0.0033
THZ1; 0.01 µM
  increase in dead-cell fraction: 0.0048
THZ1; 0.03162 µM
  increase in dead-cell fraction: 0.0266
THZ1; 0.1 µM
  increase in dead-cell fraction: 0.0311
THZ1; 0.3162 µM
  increase in dead-cell fraction: 0.0265
THZ1; 1 µM
  increase in dead-cell fraction: 0.0708
LEE011/Ribociclib; 0.001 µM
  increase in dead-cell fraction: -0.0051
LEE011/Ribociclib; 0.003162 µM
  increase in dead-cell fraction: -0.0023
LEE011/Ribociclib; 0.01 µM
  increase in dead-cell fraction: 0.0009
LEE011/Ribociclib; 0.03162 µM
  increase in dead-cell fraction: -0.0029
LEE011/Ribociclib; 0.1 µM
  increase in dead-cell fraction: 0
LEE011/Ribociclib; 0.3162 µM
  increase in dead-cell fraction: 0.001
LEE011/Ribociclib; 1 µM
  increase in dead-cell fraction: -0.0006
LEE011/Ribociclib; 3.162 µM
  increase in dead-cell fraction: 0.0024
LEE011/Ribociclib; 10 µM
  increase in dead-cell fraction: 0.0041
[3]; 0.001 µM
  increase in dead-cell fraction: -0.0028
[3]; 0.003162 µM
  increase in dead-cell fraction: -0.0021
[3]; 0.01 µM
  increase in dead-cell fraction: 0.0053
[3]; 0.03162 µM
  increase in dead-cell fraction: 0.0134
[3]; 0.1 µM
  increase in dead-cell fraction: 0.0398
[3]; 0.3162 µM
  increase in dead-cell fraction: 0.0603
[3]; 1 µM
  increase in dead-cell fraction: 0.146
[3]; 3.162 µM
  increase in dead-cell fraction: 0.248
[3]; 10 µM
  increase in dead-cell fraction: 0.249
Neratinib/HKI272; 0.0003162 µM
  increase in dead-cell fraction: -0.0012
Neratinib/HKI272; 0.001 µM
  increase in dead-cell fraction: -0.0046
Neratinib/HKI272; 0.003162 µM
  increase in dead-cell fraction: -0.0039
Neratinib/HKI272; 0.01 µM
  increase in dead-cell fraction: -0.0045
Neratinib/HKI272; 0.03162 µM
  increase in dead-cell fraction: 0.0031
Neratinib/HKI272; 0.1 µM
  increase in dead-cell fraction: -0.0024
Neratinib/HKI272; 0.3162 µM
  increase in dead-cell fraction: 0.0027
Neratinib/HKI272; 1 µM
  increase in dead-cell fraction: 0.0247
Neratinib/HKI272; 3.162 µM
  increase in dead-cell fraction: 0.571
BSJ-03-123; 0.001 µM
  increase in dead-cell fraction: -0.0001
BSJ-03-123; 0.003162 µM
  increase in dead-cell fraction: 0.0019
BSJ-03-123; 0.01 µM
  increase in dead-cell fraction: -0.0014
BSJ-03-123; 0.03162 µM
  increase in dead-cell fraction: -0.0007
BSJ-03-123; 0.1 µM
  increase in dead-cell fraction: -0.0013
BSJ-03-123; 0.3162 µM
  increase in dead-cell fraction: 0.0033
BSJ-03-123; 1 µM
  increase in dead-cell fraction: 0.004
BSJ-03-123; 3.162 µM
  increase in dead-cell fraction: 0.0059
BSJ-03-123; 10 µM
  increase in dead-cell fraction: 0.0482
Flavopiridol; 0.0001 µM
  increase in dead-cell fraction: -0.0013
Flavopiridol; 0.0003162 µM
  increase in dead-cell fraction: 0.002
Flavopiridol; 0.001 µM
  increase in dead-cell fraction: 0.0027
Flavopiridol; 0.003162 µM
  increase in dead-cell fraction: -0.0004
Flavopiridol; 0.01 µM
  increase in dead-cell fraction: -0.0008
Flavopiridol; 0.03162 µM
  increase in dead-cell fraction: 0.0016
Flavopiridol; 0.1 µM
  increase in dead-cell fraction: 0.0004
Flavopiridol; 0.3162 µM
  increase in dead-cell fraction: 0.0194
Flavopiridol; 1 µM
  increase in dead-cell fraction: 0.0425
Ipatasertib/GDC0068
  GR50, 72 h: > 10 µM
[4]
  GR50, 72 h: 0.00365 µM
AZD7762
  GR50, 72 h: 0.156 µM
Tivantinib/ARQ197
  GR50, 72 h: 0.251 µM
AZD6738
  GR50, 72 h: > 10 µM
BSJ-01-175
  GR50, 72 h: 0.0411 µM
[5]
  GR50, 72 h: 0.247 µM
[6]
  GR50, 72 h: > 10 µM
AZD2014
  GR50, 72 h: 0.184 µM
Vorinostat
  GR50, 72 h: 1.35 µM
[7]
  GR50, 72 h: 0.0468 µM
